Values joined by “and” are separate entries in the source; they are usually repeats but may differ in a detail not shown here. Equal values may be shown once.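 How tested: cells in 96-well plates exposed to compound for 48 hours at five concentrations. Abbreviation: GI50, concentration required for 50% inhibition of growth. The concentration for full growth arrest is given as TGI.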
Legend:
Assay in all cases: growth of human tumour cells (NCI), 48 h
DLD-1 colon = tested on: DLD-1 colon
RXF-631 renal = tested on: RXF-631 renal
LXFL 529 NSCLC = tested on: LXFL 529 NSCLC
HOP-18 NSCLC = tested on: HOP-18 NSCLC
MDA-N = tested on: MDA-N
PC-3 prostate = tested on: PC-3 prostate
T-47D breast = tested on: T-47D breast
DU-145 prostate = tested on: DU-145 prostate

CC1=C(O)C(=O)C2C(=O)C1C(C)C2c1ccc(Cl)cc1 (stereo not drawn)
TGI (DLD-1 colon): > 100 µM
TGI (RXF-631 renal): > 100 µM
TGI (LXFL 529 NSCLC): > 100 µM

COc1ccc(NC(=O)c2cc(OC)c(OC)c(OC)c2)cc1
TGI (DLD-1 colon): > 100 µM
TGI (RXF-631 renal): > 100 µM
TGI (LXFL 529 NSCLC): > 100 µM
TGI (HOP-18 NSCLC): > 100 µM

CCOC(=O)NN1C(=O)C(=P(c2ccccc2)(c2ccccc2)c2ccccc2)C(C(=O)OCC)=C1C
TGI (DLD-1 colon): > 100 µM
TGI (RXF-631 renal): > 100 µM
TGI (LXFL 529 NSCLC): > 100 µM

Cc1cccc(C(C)C)c1NC(=O)C(=O)CC(=O)c1c(C)n([O-])c2ccccc2[n+]1=O
TGI (RXF-631 renal): 67.4 µM
TGI (LXFL 529 NSCLC): > 100 µM
TGI (HOP-18 NSCLC): > 100 µM

O=C(CN1CCN(c2ccccc2)CC1)N1CCc2c([nH]c3ccccc23)C1c1cccnc1 (stereo not drawn)
TGI (DLD-1 colon): > 100 µM
TGI (RXF-631 renal): > 94.5 µM
TGI (LXFL 529 NSCLC): > 100 µM
TGI (HOP-18 NSCLC): > 100 µM

COc1ccc2oc3cccc(NCCN(C)C)c3c(=O)c2c1
TGI (DLD-1 colon): 27.5 µM
TGI (RXF-631 renal): 32.4 µM
TGI (LXFL 529 NSCLC): 26 µM
TGI (HOP-18 NSCLC): 24 µM

S=c1[nH]c2ccc(Br)cc2c(=S)n1-c1ccccc1
TGI (DLD-1 colon): > 100 µM
TGI (RXF-631 renal): > 100 µM
TGI (HOP-18 NSCLC): 85.4 µM

Cc1ccc(NC(=O)/C(=N\Nc2ccc([N+](=O)[O-])cc2[N+](=O)[O-])C2C(=O)NC(=O)NC2=O)cc1
TGI (DLD-1 colon): > 100 µM
TGI (RXF-631 renal): > 100 µM
TGI (LXFL 529 NSCLC): > 100 µM
TGI (HOP-18 NSCLC): > 100 µM

CC1S(=O)(=O)OCCOS1(=O)=O
TGI (DLD-1 colon): > 100 µM
TGI (RXF-631 renal): > 100 µM
TGI (LXFL 529 NSCLC): > 100 µM
TGI (HOP-18 NSCLC): > 100 µM

COc1nc2nccc-2c2occn12
TGI (DLD-1 colon): > 100 µM
TGI (RXF-631 renal): > 100 µM
TGI (LXFL 529 NSCLC): > 100 µM
TGI (HOP-18 NSCLC): > 100 µM

Cc1cc(=O)oc2cc3c(cc12)Oc1ccccc1O3
TGI (DLD-1 colon): > 100 µM
TGI (RXF-631 renal): > 100 µM
TGI (LXFL 529 NSCLC): > 100 µM
TGI (HOP-18 NSCLC): > 100 µM

O=C(O)c1cc(=O)c2[nH]c3ccccc3c2s1
TGI (DLD-1 colon): > 100 µM
TGI (RXF-631 renal): > 100 µM
TGI (LXFL 529 NSCLC): > 100 µM

CCOc1ccc(NCc2cc(OC)c(OC)c(OC)c2)cc1
GI50 (MDA-N): 0.565 µM and 0.446 µM
TGI (MDA-N): > 100 µM
TGI (PC-3 prostate): > 100 µM
TGI (DLD-1 colon): > 100 µM
GI50 (T-47D breast): 1.66 µM and 4.48 µM
TGI (T-47D breast): > 100 µM
GI50 (LXFL 529 NSCLC): 0.839 µM and 2.67 µM
TGI (LXFL 529 NSCLC): > 100 µM
TGI (DU-145 prostate): > 100 µM
GI50 (HOP-18 NSCLC): 2.46 µM and 10.2 µM
TGI (HOP-18 NSCLC): > 100 µM

CCCCCCCCCCCCCCCC(=O)OCC1OC(n2c(O)c(N=NC(N)=S)c3ccc([N+](=O)[O-])cc32)C(OC(C)=O)C1OC(C)=O (stereo not drawn)
TGI (DLD-1 colon): > 100 µM
TGI (RXF-631 renal): > 100 µM
TGI (LXFL 529 NSCLC): > 100 µM
TGI (HOP-18 NSCLC): > 100 µM
